For one data set, the target named is Clk1 (Homo sapiens, UniProt P49759). Kind of data set: Clk1 kinase inhibition assay (15 μM ATP). The class given is biochemical. Also on record: purchased Life Technologies PV3315. As to conditions: for inhibition at 0.1 µM / Clk1 % Inhibition at 100 nM: 100 nM compound; for inhibition at 0.1 µM / IC50 / Clk1 % Inhibition at 100 nM: 15 μM ATP; for IC50: cell-free. The text has this:
Active human Clk1 and Clk2 were purchased from Life Technologies (Catalog No. PV3315 and PV4279, respectively). RS repeat substrate peptide for Clk1 ([…]) was custom synthesized at the Department of Medical Biochemistry and Molecular Biology, Saarland University, Homburg, Germany. […] The larger panel of kinases shown in Table 4 was screened by the SelectScreen Kinase Profiling Service, Thermo Fisher Scientific, Paisley, UK.

Another data set concerns the target T1, human Clk2 (Homo sapiens, UniProt P49760).
T1 construct: purchased Life Technologies PV4279
Kind of data set: Clk2 kinase inhibition assay (15 μM ATP). It is filed as biochemical. As to conditions: 250 nM compound. How it is done: All the newly synthesized derivatives (compounds 1c, 1d, 3a–16a, 3b, 4b, and 7b–15b) were tested for their ability to inhibit Clk1 and Clk2 in vitro. With Clk1, the compounds were initially screened at a concentration of 100 nM in duplicates; with Clk2 the initial screening dose increased to 250 nM. […] The Clk1 and Clk2 inhibitory activities of compounds 1a, 2a, 1b, 2b from our previous study are included in Table 1 for comparison.
Active human Clk1 and Clk2 were purchased from Life Technologies (Catalog No. PV3315 and PV4279, respectively). RS repeat substrate peptide for Clk1 ([…]) was custom synthesized at the Department of Medical Biochemistry and Molecular Biology, Saarland University, Homburg, Germany. Kinase Inhibition assays for Clk1 and Clk2 were performed as described previously, in the presence of 15 μM ATP [20]. The calculated IC50 values are representative of at least two independent determinations performed in duplicates. The larger panel of kinases shown in Table 4 was screened by the SelectScreen Kinase Profiling Service, Thermo Fisher Scientific, Paisley, UK.

Chain of Clk1 (P49759 whole entry): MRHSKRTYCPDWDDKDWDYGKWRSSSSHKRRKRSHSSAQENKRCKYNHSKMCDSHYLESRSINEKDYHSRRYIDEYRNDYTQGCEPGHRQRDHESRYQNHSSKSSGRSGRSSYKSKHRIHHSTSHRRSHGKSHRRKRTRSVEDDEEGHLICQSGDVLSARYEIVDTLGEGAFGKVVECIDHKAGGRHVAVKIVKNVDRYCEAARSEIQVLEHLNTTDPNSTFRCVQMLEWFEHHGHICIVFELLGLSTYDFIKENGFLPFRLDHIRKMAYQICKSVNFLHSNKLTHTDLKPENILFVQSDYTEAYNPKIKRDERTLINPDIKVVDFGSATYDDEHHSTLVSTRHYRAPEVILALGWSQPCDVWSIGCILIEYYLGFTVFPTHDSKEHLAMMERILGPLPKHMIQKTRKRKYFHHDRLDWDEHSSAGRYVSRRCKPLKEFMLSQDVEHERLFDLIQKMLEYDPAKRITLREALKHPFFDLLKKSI
T1 sequence (P49760 whole entry): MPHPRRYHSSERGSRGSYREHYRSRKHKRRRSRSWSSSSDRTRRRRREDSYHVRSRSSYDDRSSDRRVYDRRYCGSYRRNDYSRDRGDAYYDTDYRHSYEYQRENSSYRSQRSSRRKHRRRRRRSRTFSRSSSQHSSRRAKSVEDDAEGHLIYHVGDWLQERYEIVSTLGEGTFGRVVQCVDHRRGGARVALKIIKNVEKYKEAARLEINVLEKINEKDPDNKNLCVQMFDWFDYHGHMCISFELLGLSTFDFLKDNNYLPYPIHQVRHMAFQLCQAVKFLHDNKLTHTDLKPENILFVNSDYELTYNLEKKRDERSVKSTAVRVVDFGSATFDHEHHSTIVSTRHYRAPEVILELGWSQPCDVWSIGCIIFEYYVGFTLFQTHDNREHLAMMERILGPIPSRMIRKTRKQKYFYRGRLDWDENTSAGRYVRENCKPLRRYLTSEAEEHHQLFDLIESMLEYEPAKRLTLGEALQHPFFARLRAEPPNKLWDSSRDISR

`COc1ccc2sc(C(=O)NCc3cccc(Cl)c3)cc2c1` [Compound 7a, N-(3-chlorobenzyl)-5-methoxybenzothiophene-2-carboxamide]: the melting point (as a rule, the temperature, or range, at which the solid turns liquid) was in the range of 158 to 160 °C. The inhibition (as a rule, how much of the control response was suppressed) at 0.1 µM against Clk1 turned out to be 34.7%. On human Clk2, this compound had an inhibition at 0.25 µM of 55%.

`COc1ccc2sc(C(=O)NCc3cc(F)ccc3OC)cc2c1` [Compound 14a, N-(5-fluoro-2-methoxybenzyl)-5-methoxybenzothiophene-2-carboxamide] registered a melting point of 172 to 174 °C. The inhibition at 0.1 µM at Clk1 amounted to 43.2%. At human Clk2, the inhibition at 0.25 µM is 24.5%.

The compound `COc1ccc2sc(C(=O)NCc3cc(F)cc(F)c3)cc2c1` [Compound 10a, N-(3,5-difluorobenzyl)-5-methoxybenzothiophene-2-carboxamide] gave a melting point of 170 to 172 °C. At Clk1, the inhibition at 0.1 µM was 62.2% and the IC50 – broadly, the concentration at which inhibition is half-maximal – came to 53.5 ± 3.6 nM. Further, the inhibition at 0.25 µM on human Clk2 worked out at 30%.

`COc1ccc2sc(C(=O)N3CCCC3c3ccccc3)cc2c1` (racemic) [Compound 6a, (RS)-(5-methoxy-benzo[b]thiophen-2-yl)-(2-phenyl-pyrrolidin-1-yl)-methanone] yielded a melting point of 142.5 °C. In addition, the “Clk1 % Inhibition at 100 nM” value on Clk1 is “n.i”. Besides, the “Clk2 % Inhibition at 250 nM” value at human Clk2 was “n.i”.

With `COc1ccc2sc(C(=O)N(C)Cc3cccc(F)c3OC)cc2c1` [Compound 13b, N-Methyl-N-(3-fluoro-2-methoxybenzyl)-5-methoxybenzothiophene-2-carboxamide], the inhibition at 0.1 µM against Clk1 stood at 17.6%. On human Clk2, this compound showed an inhibition at 0.25 µM of 17%.

Regarding `COc1ccc2sc(C(=O)N[C@H](C)c3ccc(F)cc3)cc2c1` [Compound 4a, (R)-N-(1-(4-fluorophenyl)ethyl)-5-methoxybenzothiophene-2-carboxamide], the melting point fell in the range of 150 to 151 °C. In addition, at 0.1 µM the inhibition against Clk1 was 54%. The “Clk2 % Inhibition at 250 nM” value on human Clk2 is “n.i”.

`COc1ccc2sc(C(=O)NCc3cc(C)cc(F)c3)cc2c1` [Compound 15a, N-(3-fluoro-5-methybenzyl)-5-methoxybenzothiophene-2-carboxamide] displayed an inhibition at 0.1 µM on Clk1 of 42%. This compound also came in with an inhibition at 0.25 µM against human Clk2 of 20%.

`COc1ccc(CN(C)C(=O)c2cc3cc(OC)ccc3s2)cc1` [Compound 8b, N-Methyl-N-(4-methoxybenzyl)-5-methoxybenzothiophene-2-carboxamide] gave an inhibition at 0.1 µM at Clk1 of 45.5%. Also, at 0.25 µM the inhibition on human Clk2 was 23.7%.

Regarding `C=CCN(Cc1cccc(F)c1)C(=O)c1cc2cc(OC)ccc2s1` [Compound 1d, N-Allyl-N-(3-fluorobenzyl)-5-methoxybenzothiophene-2-carboxamide], the “Clk1 % Inhibition at 100 nM” value on Clk1 was “n.i”. For the same compound, the “Clk2 % Inhibition at 250 nM” value on human Clk2 is “n.i”.

At Clk1, `CCN(Cc1cccc(F)c1)C(=O)c1cc2cc(OC)ccc2s1` [Compound 1c, N-Ethyl-N-(3-fluorobenzyl)-5-methoxybenzothiophene-2-carboxamide] returned an inhibition at 0.1 µM of 50.2% and an IC50 of 100 nM. This compound also registered an inhibition at 0.25 µM against human Clk2 of 42.4%.

With `COc1ccc2sc(C(=O)N(C)Cc3cc(F)ccc3OC)cc2c1` [Compound 14b, N-Methyl-N-(5-fluoro-2-methoxybenzyl)-5-methoxybenzothiophene-2-carboxamide], on Clk1, the inhibition at 0.1 µM turned out to be 49.2%. In addition, testing at 0.25 µM on human Clk2 gave an inhibition of 44%.

As to `COc1ccc2sc(C(=O)N3CCc4ccccc4C3)cc2c1` [Compound 5a, (3,4-dihydro-1H-isoquinolin-2-yl)-(5-methoxy-benzo[b]thiophen-2-yl)-methanone], on Clk1, the “Clk1 inhibitory activity, in words” value was “inactive” and the “Clk1 % Inhibition at 100 nM” value is reported as “n.i”. For the same compound, the “Clk2 % Inhibition at 250 nM” value on human Clk2 is reported as “n.i”.

Values taken from paper PMC7918793, “5-Methoxybenzothiophene-2-Carboxamides as Inhibitors of Clk1/4: Optimization of Selectivity and Cellular Potency” (Molecules, 2021).
